Reference: ChEMBL document CHEMBL4152312, “Identification of fused pyrimidines as interleukin 17 secretion inhibitors” (Eur J Med Chem, 2018)

Key:
[1] = target: Tyrosine-protein kinase Lyn (Homo sapiens) (UniProt P07948); assay: Inhibition of recombinant human full-length N-terminal His-tagged LYN-B expressed in baculovirus expression system at 500 nM by Z-LYTE assay relative to control
[2] = target: RAC-alpha serine/threonine-protein kinase (Homo sapiens) (UniProt P31749); assay: Inhibition of recombinant human full length His-tagged AKT1 expressed in baculovirus expression system at 500 nM by Z-LYTE assay relative to control
[3] = target: Calcium/calmodulin-dependent protein kinase type 1G (Homo sapiens) (UniProt Q96NX5); assay: Inhibition of recombinant human full length GST-tagged CAMK1G expressed in insect cells at 500 nM by Z-LYTE assay relative to control
[4] = target: T1, Calcium/calmodulin-dependent protein kinase type IV (Homo sapiens) (UniProt Q16566); assay: Inhibition of recombinant human full length GST-tagged CAMK4 expressed in Escherichia coli at 500 nM by Z-LYTE assay relative to control
T1 sequence (whole entry): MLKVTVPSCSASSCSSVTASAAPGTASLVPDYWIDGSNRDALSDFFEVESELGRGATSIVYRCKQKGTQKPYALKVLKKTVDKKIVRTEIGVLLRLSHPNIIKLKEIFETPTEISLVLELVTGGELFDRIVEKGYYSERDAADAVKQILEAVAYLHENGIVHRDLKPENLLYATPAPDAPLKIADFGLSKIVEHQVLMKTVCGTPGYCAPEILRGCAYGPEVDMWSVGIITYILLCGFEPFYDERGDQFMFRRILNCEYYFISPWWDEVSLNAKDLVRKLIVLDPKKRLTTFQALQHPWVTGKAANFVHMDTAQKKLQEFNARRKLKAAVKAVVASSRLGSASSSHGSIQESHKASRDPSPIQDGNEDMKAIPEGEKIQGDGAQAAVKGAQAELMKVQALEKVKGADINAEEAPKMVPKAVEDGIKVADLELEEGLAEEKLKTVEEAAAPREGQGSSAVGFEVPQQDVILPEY

[5] = target: Receptor tyrosine-protein kinase erbB-2 (Homo sapiens) (UniProt P04626); assay: Inhibition of recombinant human His-tagged ERBB2 cytoplasmic domain expressed in baculovirus expression system at 500 nM by Z-LYTE assay relative to control
[6] = target: Receptor tyrosine-protein kinase erbB-4 (Homo sapiens) (UniProt Q15303); assay: Inhibition of recombinant humans GST-tagged ERBB4 cytoplasmic domain expressed in baculovirus expression system at 500 nM by Z-LYTE assay relative to control
[7] = target: Receptor-type tyrosine-protein kinase FLT3 (Homo sapiens) (UniProt P36888); assay: Inhibition of recombinant human His-tagged FLT3 cytoplasmic domain (564 to 958 residues) expressed in baculovirus expression system at 500 nM by Z-LYTE assay relative to control
[8] = target: T2, Inhibitor of nuclear factor kappa-B kinase subunit epsilon (Homo sapiens) (UniProt Q14164); assay: Inhibition of recombinant full-length human GST-tagged IKKepsilon expressed in baculovirus expression system at 500 nM by Z-LYTE assay relative to control
T2 sequence (whole entry): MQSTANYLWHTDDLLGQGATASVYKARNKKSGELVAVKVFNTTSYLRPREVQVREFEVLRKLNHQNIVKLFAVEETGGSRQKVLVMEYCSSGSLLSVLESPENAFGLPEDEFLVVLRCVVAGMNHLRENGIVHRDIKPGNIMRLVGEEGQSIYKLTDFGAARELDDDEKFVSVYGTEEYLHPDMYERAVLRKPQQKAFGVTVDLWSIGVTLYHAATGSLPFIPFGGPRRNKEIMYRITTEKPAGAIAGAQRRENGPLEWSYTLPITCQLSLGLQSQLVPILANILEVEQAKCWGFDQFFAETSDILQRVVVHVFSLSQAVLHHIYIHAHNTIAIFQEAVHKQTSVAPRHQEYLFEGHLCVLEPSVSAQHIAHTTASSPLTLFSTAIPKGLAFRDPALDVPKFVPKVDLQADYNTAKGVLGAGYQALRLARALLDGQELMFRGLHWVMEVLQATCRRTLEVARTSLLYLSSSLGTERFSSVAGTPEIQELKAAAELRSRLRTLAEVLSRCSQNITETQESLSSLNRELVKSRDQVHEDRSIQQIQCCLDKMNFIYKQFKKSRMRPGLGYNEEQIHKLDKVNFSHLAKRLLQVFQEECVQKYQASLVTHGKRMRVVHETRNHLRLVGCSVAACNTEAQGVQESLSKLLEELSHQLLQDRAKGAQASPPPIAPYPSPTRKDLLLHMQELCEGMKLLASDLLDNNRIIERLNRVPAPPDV

[9] = target: Tyrosine-protein kinase JAK2 (Homo sapiens) (UniProt O60674); assay: Inhibition of recombinant human GST-tagged JAK2 cytoplasmic domain (809 to […] residues) expressed in baculovirus expression system at 500 nM by Z-LYTE assay relative to control
[10] = target: Vascular endothelial growth factor receptor 2 (Homo sapiens) (UniProt P35968); assay: Inhibition of recombinant human His-tagged KDR cytoplasmic domain (789 to 1356 residues) expressed in baculovirus expression system at 500 nM by Z-LYTE assay relative to control
[11] = target: Tyrosine-protein kinase Lyn (Homo sapiens) (UniProt P07948); assay: Inhibition of recombinant human full-length N-terminal GST-tagged LYN-A expressed in insect cells at 500 nM by Z-LYTE assay relative to control
[12] = target: Dual specificity mitogen-activated protein kinase kinase 1 (Homo sapiens) (UniProt Q02750); assay: Inhibition of recombinant human full length His-tagged MEK1 expressed in baculovirus expression system at 500 nM by Z-LYTE assay relative to control
[13] = target: Mitogen-activated protein kinase 11 (Homo sapiens) (UniProt Q15759); assay: Inhibition of recombinant human full length His-tagged p38-beta expressed in baculovirus expression system at 500 nM by Z-LYTE assay relative to control
[14] = target: Serine/threonine-protein kinase PAK 2 (Homo sapiens) (UniProt Q13177); assay: Inhibition of recombinant human full length GST-tagged PAK2 expressed in baculovirus expression system at 500 nM by Z-LYTE assay relative to control
[15] = target: Serine/threonine-protein kinase pim-3 (Homo sapiens) (UniProt Q86V86); assay: Inhibition of recombinant full length human GST-tagged PIM3 expressed in insect cells at 500 nM by Z-LYTE assay relative to control
[16] = target: Protein kinase C theta type (Homo sapiens) (UniProt Q04759); assay: Inhibition of recombinant full length human His-tagged PKCtheta expressed in baculovirus expression system at 500 nM by Z-LYTE assay relative to control
[17] = target: Proto-oncogene tyrosine-protein kinase receptor Ret (Homo sapiens) (UniProt P07949); assay: Inhibition of recombinant human GST-tagged RET cytoplasmic domain expressed in baculovirus expression system at 500 nM by Z-LYTE assay relative to control
[18] = target: Rho-associated protein kinase 1 (Homo sapiens) (UniProt Q13464); assay: Inhibition of recombinant human GST-tagged ROCK1 cytoplasmic domain expressed in baculovirus expression system at 500 nM by Z-LYTE assay relative to control
Sequence of Rho-associated protein kinase 1 (Homo sapiens) (Q13464 2-1354 limits assumed): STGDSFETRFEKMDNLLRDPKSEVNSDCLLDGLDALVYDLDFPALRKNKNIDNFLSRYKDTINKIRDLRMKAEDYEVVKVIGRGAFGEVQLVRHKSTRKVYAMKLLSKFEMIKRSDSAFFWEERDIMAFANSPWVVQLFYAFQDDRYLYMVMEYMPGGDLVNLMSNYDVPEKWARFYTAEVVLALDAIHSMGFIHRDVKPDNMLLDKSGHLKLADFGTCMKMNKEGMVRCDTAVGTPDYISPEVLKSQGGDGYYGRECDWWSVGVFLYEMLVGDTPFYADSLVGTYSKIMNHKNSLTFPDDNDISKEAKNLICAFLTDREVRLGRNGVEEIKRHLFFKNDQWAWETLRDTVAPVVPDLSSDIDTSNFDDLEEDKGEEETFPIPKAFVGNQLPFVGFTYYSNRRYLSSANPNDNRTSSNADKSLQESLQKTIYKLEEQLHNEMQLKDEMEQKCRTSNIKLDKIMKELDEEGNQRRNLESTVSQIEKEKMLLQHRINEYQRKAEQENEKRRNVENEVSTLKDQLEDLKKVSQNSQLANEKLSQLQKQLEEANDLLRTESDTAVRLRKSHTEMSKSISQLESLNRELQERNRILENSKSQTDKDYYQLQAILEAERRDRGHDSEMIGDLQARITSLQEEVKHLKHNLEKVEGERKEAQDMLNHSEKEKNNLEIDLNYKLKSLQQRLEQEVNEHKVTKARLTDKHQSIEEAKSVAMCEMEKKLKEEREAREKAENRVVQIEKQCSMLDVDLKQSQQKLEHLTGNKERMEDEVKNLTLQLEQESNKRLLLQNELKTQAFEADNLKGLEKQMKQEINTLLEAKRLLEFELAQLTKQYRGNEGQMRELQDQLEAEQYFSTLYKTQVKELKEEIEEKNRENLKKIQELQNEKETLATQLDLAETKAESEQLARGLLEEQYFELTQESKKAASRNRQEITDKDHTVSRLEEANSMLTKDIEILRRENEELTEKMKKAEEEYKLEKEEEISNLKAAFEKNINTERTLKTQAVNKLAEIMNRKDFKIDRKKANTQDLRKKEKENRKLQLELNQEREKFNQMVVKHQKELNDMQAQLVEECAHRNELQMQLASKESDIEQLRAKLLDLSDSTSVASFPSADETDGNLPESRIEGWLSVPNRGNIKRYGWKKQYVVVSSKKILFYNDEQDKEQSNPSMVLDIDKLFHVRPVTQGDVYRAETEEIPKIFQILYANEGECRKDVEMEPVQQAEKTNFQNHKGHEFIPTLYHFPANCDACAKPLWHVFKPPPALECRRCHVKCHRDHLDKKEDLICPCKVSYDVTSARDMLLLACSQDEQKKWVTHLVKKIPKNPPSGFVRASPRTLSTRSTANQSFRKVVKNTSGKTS

Sequence of Protein kinase C theta type (Homo sapiens) (Q04759 whole entry, looked up, the tested form may be a part): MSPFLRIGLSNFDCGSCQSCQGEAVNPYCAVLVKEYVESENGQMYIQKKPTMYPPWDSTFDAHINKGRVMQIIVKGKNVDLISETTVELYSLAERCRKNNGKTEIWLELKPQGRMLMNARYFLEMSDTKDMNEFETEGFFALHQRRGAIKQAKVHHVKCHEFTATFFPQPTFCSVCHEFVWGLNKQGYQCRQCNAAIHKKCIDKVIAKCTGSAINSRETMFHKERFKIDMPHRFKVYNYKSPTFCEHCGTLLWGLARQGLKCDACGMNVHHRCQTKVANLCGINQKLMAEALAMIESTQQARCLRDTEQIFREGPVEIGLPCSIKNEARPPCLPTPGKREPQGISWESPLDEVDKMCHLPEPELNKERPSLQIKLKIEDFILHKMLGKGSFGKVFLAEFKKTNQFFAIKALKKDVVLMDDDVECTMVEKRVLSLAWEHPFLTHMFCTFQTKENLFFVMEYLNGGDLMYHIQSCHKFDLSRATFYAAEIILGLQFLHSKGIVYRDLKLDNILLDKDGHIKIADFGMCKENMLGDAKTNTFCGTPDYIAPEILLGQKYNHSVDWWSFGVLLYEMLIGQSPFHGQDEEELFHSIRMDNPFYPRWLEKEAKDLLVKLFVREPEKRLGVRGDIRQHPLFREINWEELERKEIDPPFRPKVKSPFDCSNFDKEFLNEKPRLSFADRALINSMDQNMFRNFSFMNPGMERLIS
Sequence of Tyrosine-protein kinase JAK2 (Homo sapiens) (O60674 whole entry, the tested form may be a part): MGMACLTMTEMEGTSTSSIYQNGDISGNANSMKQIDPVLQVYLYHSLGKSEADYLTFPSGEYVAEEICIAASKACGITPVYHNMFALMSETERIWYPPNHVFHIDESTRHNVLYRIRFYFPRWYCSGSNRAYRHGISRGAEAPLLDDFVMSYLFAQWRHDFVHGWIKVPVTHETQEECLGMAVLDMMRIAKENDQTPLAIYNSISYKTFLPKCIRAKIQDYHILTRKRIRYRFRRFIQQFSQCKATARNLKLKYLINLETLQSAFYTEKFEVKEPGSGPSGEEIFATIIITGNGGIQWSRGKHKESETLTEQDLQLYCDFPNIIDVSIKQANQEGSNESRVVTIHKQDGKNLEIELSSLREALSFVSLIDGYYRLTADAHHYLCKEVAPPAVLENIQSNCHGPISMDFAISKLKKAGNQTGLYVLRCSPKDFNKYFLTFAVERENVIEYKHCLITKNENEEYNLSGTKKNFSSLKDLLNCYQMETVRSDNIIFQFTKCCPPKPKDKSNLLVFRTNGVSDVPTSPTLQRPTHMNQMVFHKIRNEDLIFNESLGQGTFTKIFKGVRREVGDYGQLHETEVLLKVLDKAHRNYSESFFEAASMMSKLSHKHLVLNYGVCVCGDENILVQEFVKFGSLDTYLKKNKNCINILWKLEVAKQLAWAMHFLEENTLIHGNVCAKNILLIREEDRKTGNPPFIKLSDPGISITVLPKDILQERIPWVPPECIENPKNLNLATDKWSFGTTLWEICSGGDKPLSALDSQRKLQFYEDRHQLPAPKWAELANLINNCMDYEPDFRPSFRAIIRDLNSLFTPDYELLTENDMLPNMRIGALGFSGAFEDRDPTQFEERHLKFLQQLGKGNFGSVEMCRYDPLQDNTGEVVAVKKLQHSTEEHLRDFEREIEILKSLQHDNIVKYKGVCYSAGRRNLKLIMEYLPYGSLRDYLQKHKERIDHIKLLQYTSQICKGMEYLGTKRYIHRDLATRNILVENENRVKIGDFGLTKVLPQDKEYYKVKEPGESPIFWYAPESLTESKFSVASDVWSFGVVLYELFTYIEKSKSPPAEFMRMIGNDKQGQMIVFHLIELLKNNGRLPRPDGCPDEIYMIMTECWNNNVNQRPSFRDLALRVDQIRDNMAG
Sequence of Receptor tyrosine-protein kinase erbB-2 (Homo sapiens) (P04626 whole entry, the tested form may be a part): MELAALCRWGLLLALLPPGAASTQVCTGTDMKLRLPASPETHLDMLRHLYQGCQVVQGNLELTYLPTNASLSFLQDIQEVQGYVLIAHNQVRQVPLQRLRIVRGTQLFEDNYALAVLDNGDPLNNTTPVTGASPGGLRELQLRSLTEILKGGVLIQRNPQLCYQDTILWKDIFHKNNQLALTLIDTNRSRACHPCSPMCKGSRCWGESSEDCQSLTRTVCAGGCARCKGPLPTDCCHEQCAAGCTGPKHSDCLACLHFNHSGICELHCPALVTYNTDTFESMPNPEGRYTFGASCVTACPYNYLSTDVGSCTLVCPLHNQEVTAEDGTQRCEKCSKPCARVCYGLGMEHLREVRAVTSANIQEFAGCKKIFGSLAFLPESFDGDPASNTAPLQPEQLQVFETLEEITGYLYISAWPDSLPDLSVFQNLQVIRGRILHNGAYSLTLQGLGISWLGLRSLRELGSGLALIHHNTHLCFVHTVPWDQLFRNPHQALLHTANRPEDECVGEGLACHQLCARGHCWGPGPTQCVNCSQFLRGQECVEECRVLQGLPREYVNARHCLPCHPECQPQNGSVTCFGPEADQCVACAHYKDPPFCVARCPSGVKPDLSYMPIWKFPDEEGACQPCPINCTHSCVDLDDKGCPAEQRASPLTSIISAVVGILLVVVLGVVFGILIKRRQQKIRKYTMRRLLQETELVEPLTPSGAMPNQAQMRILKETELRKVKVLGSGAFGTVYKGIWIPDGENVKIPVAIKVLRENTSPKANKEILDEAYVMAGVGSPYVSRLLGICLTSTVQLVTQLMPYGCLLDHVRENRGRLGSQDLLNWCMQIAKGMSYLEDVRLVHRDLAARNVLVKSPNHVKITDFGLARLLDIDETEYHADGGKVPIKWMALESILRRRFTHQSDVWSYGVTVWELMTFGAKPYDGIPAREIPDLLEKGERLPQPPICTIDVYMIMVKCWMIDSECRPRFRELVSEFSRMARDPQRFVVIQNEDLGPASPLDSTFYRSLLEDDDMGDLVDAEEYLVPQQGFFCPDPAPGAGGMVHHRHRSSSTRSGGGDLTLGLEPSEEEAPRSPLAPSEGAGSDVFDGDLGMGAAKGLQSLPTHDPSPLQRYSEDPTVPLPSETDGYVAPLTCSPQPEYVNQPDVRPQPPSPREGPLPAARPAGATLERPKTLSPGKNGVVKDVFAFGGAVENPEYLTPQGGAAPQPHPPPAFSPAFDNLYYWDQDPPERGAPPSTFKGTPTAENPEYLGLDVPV
Sequence of Mitogen-activated protein kinase 11 (Homo sapiens) (Q15759 whole entry): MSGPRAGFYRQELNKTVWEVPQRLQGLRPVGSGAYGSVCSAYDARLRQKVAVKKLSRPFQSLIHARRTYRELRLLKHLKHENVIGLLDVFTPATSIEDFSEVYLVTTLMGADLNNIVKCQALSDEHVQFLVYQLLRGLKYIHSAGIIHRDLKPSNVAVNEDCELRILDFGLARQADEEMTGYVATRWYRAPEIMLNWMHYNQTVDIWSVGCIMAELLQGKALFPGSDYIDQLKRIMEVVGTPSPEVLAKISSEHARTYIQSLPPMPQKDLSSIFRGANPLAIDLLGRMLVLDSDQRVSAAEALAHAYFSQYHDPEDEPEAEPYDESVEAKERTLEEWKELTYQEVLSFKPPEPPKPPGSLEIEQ

Row | inhibition [1] [%] | inhibition [2] [%] | inhibition [3] [%] | inhibition [4] [%] | inhibition [5] [%] | inhibition [6] [%] | inhibition [7] [%] | inhibition [8] [%] | inhibition [9] [%] | inhibition [10] [%] | inhibition [11] [%] | inhibition [12] [%] | inhibition [13] [%] | inhibition [14] [%] | inhibition [15] [%] | inhibition [16] [%] | inhibition [17] [%] | inhibition [18] [%] | Compound
1 | 70 | -4 | 0 | 6 | 48 | 71 | 43 | 3 | 6 | 38 | 74 | 10 | 6 | 5 | 3 | -2 | 41 | -1 | OCc1ccc(-c2cc3c(N[C@H](CO)c4ccccc4)ncnc3[nH]2)cc1
2 | 7 | -1 | 1 | -9 | 30 | 20 | 16 | -1 | 1 | 20 | 21 | 21 | 4 | 5 | 7 | -7 | 12 | 4 | OC[C@@H](Nc1ncnc2sc(-c3ccc(O)cc3)cc12)c1ccccc1
3 | 49 | 0 | 1 | 2 | 5 | 3 | 38 | 3 | 7 | 17 | 28 | 6 | 2 | 6 | -7 | 8 | 93 | 17 | CN(C)CCn1cc(-c2cccc(O)c2)c2c(N)ncnc21
4 | 27 | -4 | 1 | 5 | 41 | 12 | 42 | -2 | 13 | 7 | 14 | 15 | 2 | 5 | -1 | 6 | 23 | 3 | CCC(=O)Nc1ccc(-c2c[nH]c3ncnc(N[C@H](C)c4ccccc4)c23)cc1
